Data: PMC11288129, “Diversely evolved xibalbin variants from remipede venom inhibit potassium channels and activate PKA-II and Erk1/2 signaling” (BMC Biology, 2024)
Positions of bridges follow the written chain, without caps; N, C: chain ends. No end group written: not given here.

Experiments:
[1] = test system: rNav1.2; assay: TEVC current-voltage relationship (Vhalf), Nav1.2; type: cell-based, rat; design: Vhalf, toxin inactivation, Nav1.2 / Vhalf, toxin activation, Nav1.2: unit not given here; details: for Vhalf, toxin activation, Nav1.2 / Vhalf, toxin inactivation, Nav1.2: 1 µM
Description: (§1) For the expression of Kv channels rat Kv1.1 (GenBank accession number: NM_173095 [88, 89]), rKv1.2 (NM_012970 [90, 91]), human Kv1.3 (NM_002232 [92, 93]), rKv1.4 (NM_012971 [94, 95]), rKv1.6 (NM_023954 [96, 97]), hKv2.1 (NM_004975 [98, 99]), hKv3.1 (NM_004976 [100, 101]), rKv4.2 (NM_031739 [102, 103]), hKv10.1 (NM_172362 [104, 105]), hERG1 [Kv11.1, (NM_000238 [106, 107])], and Shaker IR [from Drosophila melanogaster, (NM_167595 [108, 109])], Nav channels [rNav1.2 (NM_012647 [42, 110]), rNav1.4 (NM_013178 [111, 112]), hNav1.5 (NM_198056 [113, 114]), mNav1.6 (NM_001077499 [115, 116]), BgNav [from Blattella germanica, (DQ466887 [117, 118])] and the auxiliary subunits rβ1 (NM_001271045 [119, 120]), hβ1 (NM_001037 [121, 122]), and TipE [from D. melanogaster, (NM_079196 [109, 123])], and Cav channels hCav3.1 [124, 125], hCav3.2 [126, 127], and hCav3.3 [128, 129] in Xenopus oocytes, the linearized plasmids were transcribed using the T7 or SP6 mMESSAGEmMACHINE transcription kit (Ambion, Austin, TX, USA). Mature female animals were purchased from Nasco (Fort Atkinson, USA) and were housed in the Aquatic Facility (KU Leuven) in compliance with the regulations of the European Union (EU) concerning the welfare of laboratory animals as declared in Directive 2010/63/EU. The use of X. laevis oocytes was approved by the Animal Ethics Committee of the KU Leuven with the license number P186/2019. Stage V–VI oocytes were collected from anesthetized female X. laevis frog as previously described, with the frogs anesthetized by placement in 0.1% tricaine solution (amino benzoic acid ethyl ester; Merck, USA). Oocyte microinjection was performed using a microinjector (Drummond Scientifc®, USA), with a programmed cRNA injection volume of 4—50 nL, depending on the channel subtype. The oocytes were incubated in ND96 solution (96 mM NaCl, 2 mM KCl, 1.8 mM CaCl2, 2 mM MgCl2, and 5 mM HEPES, pH 7.4), supplemented with 50 mg/l gentamicin sulfate.
(§2) Electrophysiological measurements were performed at room temperature (18–22 °C) using the two-electrode voltage clamp (TEVC) technique. Data were obtained using a GeneClamp 500 amplifier (Axon Instruments, USA), and Clampex9 software (Axon Instruments), responsible for data acquisition and storage. Glass micropipettes were produced using glass capillaries (borosilicate WPI 1B120-6) and drawn in a WPI (World Precision Instruments, USA) manual stretcher. The bath and perfusion solutions were either the previously described ND96 (Nav and Kv channels) or calcium-free ND96 supplemented with 10 mM BaCl2 (Cav channels).
(§3) Whole-cell currents of oocytes were recorded 1 to 3 days after injection. Current and voltage electrodes were filled with 3 M KCl and their resistance was adjusted from 0.7 to 2.0 MΩ. Currents were sampled at 20 kHz (Nav channels) and 10 kHz (Kv and Cav channels) and filtered using a four-pole Bessel low-pass Bessel filter, at 1 kHz for sodium, and […] for potassium and calcium, except for the hERG ion channel, in which the currents were filtered at 1 kHz. Leak subtraction was performed using a -P/4 protocol. Kv1.x currents were evoked by 500 ms depolarizations to 0 mV followed by a 500-ms pulse to − 50 mV, from a holding potential of − 90 mV. Kv2.1, Kv3.1, and Kv4.2 currents were elicited by 500 ms pulses to + 20 mV from a holding potential of − 90 mV. Current traces of Kv10.1 were elicited by 2 s depolarization to 0 mV, from a holding potential of − 90 mV. Current traces of hERG1 channel were elicited by applying a + 40 mV prepulse for 2 s followed by a step of − 120 mV for 2 s. Sodium current traces were evoked by a 100 ms depolarization to 0 mV, from a holding potential of − 90 mV. The current–voltage (IV) relationships were determined by 100-ms step depolarizations between − 90 and + 40 mV, using 5 mV increments. […]

[2] = test system: hCav3.1; assay: TEVC inhibition, Cav3.1; type: cell-based, human; design: unit not given here; details: 1 µM
Description: as §1, §2, §3

[3] = test system: rNav1.4; assay: TEVC inhibition, Nav1.4; type: cell-based, rat; details: 1 µM, Xenopus oocytes, ND96, 18–22 °C, mean ± SEM, n ≥ 3
Description: For the expression of Kv channels rat Kv1.1 (GenBank accession number: NM_173095 [88, 89]), rKv1.2 (NM_012970 [90, 91]), human Kv1.3 (NM_002232 [92, 93]), rKv1.4 (NM_012971 [94, 95]), rKv1.6 (NM_023954 [96, 97]), hKv2.1 (NM_004975 [98, 99]), hKv3.1 (NM_004976 [100, 101]), rKv4.2 (NM_031739 [102, 103]), hKv10.1 (NM_172362 [104, 105]), hERG1 [Kv11.1, (NM_000238 [106, 107])], and Shaker IR [from Drosophila melanogaster, (NM_167595 [108, 109])], Nav channels [rNav1.2 (NM_012647 [42, 110]), rNav1.4 (NM_013178 [111, 112]), hNav1.5 (NM_198056 [113, 114]), mNav1.6 (NM_001077499 [115, 116]), BgNav [from Blattella germanica, (DQ466887 [117, 118])] and the auxiliary subunits rβ1 (NM_001271045 [119, 120]), hβ1 (NM_001037 [121, 122]), and TipE [from D. melanogaster, (NM_079196 [109, 123])], and Cav channels hCav3.1 [124, 125], hCav3.2 [126, 127], and hCav3.3 [128, 129] in Xenopus oocytes, the linearized plasmids were transcribed using the T7 or SP6 mMESSAGEmMACHINE transcription kit (Ambion, Austin, TX, USA). […]
Whole-cell currents of oocytes were recorded 1 to 3 days after injection. […] The current–voltage (IV) relationships were determined by 100-ms step depolarizations between − 90 and + 40 mV, using 5 mV increments. […]

Sequence | Vhalf, toxin activation, Nav1.2 ([1]; replicate 1) | Vhalf, toxin inactivation, Nav1.2 ([1]; replicate 1) | Vhalf, toxin activation, Nav1.2 ([1]; replicate 2) | Vhalf, toxin inactivation, Nav1.2 ([1]; replicate 2) | Vhalf, toxin activation, Nav1.2 ([1]; replicate 3) | Vhalf, toxin inactivation, Nav1.2 ([1]; replicate 3) | Vhalf, toxin activation, Nav1.2 ([1]; replicate 4) | Vhalf, toxin inactivation, Nav1.2 ([1]; replicate 4) | Inhibition data, Cav3.1 ([2]; replicate 1) | Inhibition data, Cav3.1 ([2]; replicate 2) | Inhibition data, Cav3.1 ([2]; replicate 3) | Inhibition data, Cav3.1 ([2]; replicate 4) | inhibition of Nav1.4 [3] | Vhalf activation shift, Nav1.2 ([1]; 1 µM versus control (ND96))
RLFCIRHHKYCGHRPKRCCSGLFCRCNTFGTNCRCQSKGALGKLI (disulfide 4-19, 11-24, 18-35, 26-33) [xib1] | -16.7542 | -48.4729 | -15.666 | -54.2238 | -21.743 | -57.3333 | -24.4632 | -61.3134 | 0.0 | 0.0 | 0.0 | 0.0 | 21.8 ± 3.3% | 
KRSCIRRFGRCDHRPNDCCYNSSCRCNLWGSNCRCQRMGLFQKWGK (disulfide 4-19, 11-24, 18-35, 26-33) [xib13] | -21.2222 | -50.4402 | -22.3496 | -54.6262 | -23.8888 | -52.3347 | -19.606 | -52.7049 | 0.0 | 0.0 | 0.0 | 0.0 | 33.0 ± 2.4% | 1.5 mV
